Assay [1] deals with SW1990 (Pancreatic Carcinoma). As to the kind of experiment: combination Emax (second highest fraction inhibited in the dose matrix, 72 h); higher = more inhibition; extreme values may be limits of the assay. In outline:
(§1)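 Bliss excess equals the observed combination effect minus the expected value EA + EB − EA·EB, where EA and EB are the effects of each agent alone. Combination Emax is the second-highest inhibition within the matrix. Inhibition was scaled from CellTiter-Glo 2.0 luminescence, with 0 set by vehicle wells and 1 by blank wells, after 72 hours of two-drug dosing of cells plated in 1536-well plates.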

In assay [2] the test system is SW1088 (Low Grade Glioma). Described as above. Summed up:
as §1

The test system of assay [3] is LS-513 (Colorectal Carcinoma). Described as above. Summed up: as §1
Another assay concerns ES7 (Ewing's Sarcoma). The assay is described as above. Summed up:
as §1

For assay [4], the system named is NCI-H1793 (Lung Adenocarcinoma). Described as above. In outline: as §1
Assay [5] deals with 697 (B-Lymphoblastic Leukemia). The description is as above. Summed up: as §1
The subject of assay [6] is J82 (Bladder Carcinoma). Described as above. In outline: as §1
Assay [7] has as its system NCI-H1299 (Non-Small Cell Lung Carcinoma). The description is as above. In outline:
as §1

Another assay has as its system CAL-78 (Chondrosarcoma). The assay is described as above. Summed up:
as §1

Assay [8] concerns KATOIII (Gastric Carcinoma). Briefly: Bliss excess, mean over the matrix (fraction); higher = more synergy. Summed up:
as §1

The next assay deals with RH-1 (Ewing's Sarcoma). The assay is described as above. Summed up: as §1
Assay [9] deals with G-292-Clone-A141B1 (Osteosarcoma). The assay is described as above. In outline:
as §1

Assay [10] deals with CTV-1 (T-Lymphoblastic Leukemia). The description is as above. In outline:
as §1

In assay [11] the test system is U-266 (Plasma Cell Myeloma). The description is as above. In outline: as §1
The test system of assay [12] is IHH-4 (Thyroid Gland Carcinoma). The assay is described as above. Summed up: as §1
Assay [13] deals with KARPAS-620 (Plasma Cell Myeloma). The description is as above. Summed up:
as §1

Assay [14] relates to JiyoyeP-2003 (Burkitt's Lymphoma). Described as above. Summed up: as §1
Assay [15] concerns J82 (Bladder Carcinoma). The description is as above. Summed up:
as §1

Assay [16] concerns NCI-H1299 (Non-Small Cell Lung Carcinoma). The assay is described as above. Summed up: as §1
The subject of assay [17] is MFH-ino (Other Solid Carcinomas). Described as above. Summed up: as §1

For the compound `COc1nnc2ccc(N3CCC(c4ccc(OCCN5CCN(C)C(=O)[C@H]5C)cc4)CC3)nn12` [AZD5153] + CCN(CCO)CCCOc1ccc2c(Nc3cc(CC(=O)Nc4cccc(F)c4)[nH]n3)ncnc2c1 [AZD2811] (first compound max 1 µM, 7x7, partner max 1 µM), the “combination Emax” value in [1] worked out at 0.118; in [2], 0.519; in assay [3] it was 0.602; in the assay with ES7 (Ewing's Sarcoma), 0.884; in assay [4], 0.278; in [5], 1. Also, the “combination Emax” value stood at 0.355 in the assay on J82 (Bladder Carcinoma) [6], 0.71 in assay [7] and 0.486 in the assay on CAL-78 (Chondrosarcoma). In addition, the Bliss excess was -0.0288 in assay [8]; 0.0025 in the assay with RH-1 (Ewing's Sarcoma); -0.0263 in assay [9]; 0.0988 in [10]; -0.0763 in [11]; 0.0167 in [12]. Besides, the Bliss excess in assay [13] is -0.0158; in assay [14], 0.0351; in the assay on J82 (Bladder Carcinoma) [15] it was -0.0148; in assay [16], -0.0578; in assay [17], -0.0811.

The values are drawn from the supplement of paper PMC11061612.
